# Reference: patent US9249125B2, “Pyrazole derivatives as p38 MAP inhibitors” (RESPIVERT LIMITED, priority 2012, dated 2016)
# Experiments:
# GSK3α = GSK3α (Homo sapiens (Human), UniProt P49840); assay: GSK 3α enzyme inhibition (FRET, Z-LYTE); format: biochemical
# Method in brief: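 GSK3α (500 ng/mL stock) was preincubated 2 hr at RT with compound (4 to 0.004 μg/mL stocks), then FRET peptide (8 μM stock) and ATP (40 μM stock) added for 1 hr. Protease development for 1 hr cleaved unphosphorylated peptide; coumarin/fluorescein emission ratio reported phosphorylation.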
# p38 MAPKα = p38 MAPKα (Homo sapiens (Human), UniProt Q16539); assay: p38 MAPKα enzyme inhibition (FRET, Z-LYTE); format: biochemical
# p38 MAPKα, sequence (Q16539 whole entry): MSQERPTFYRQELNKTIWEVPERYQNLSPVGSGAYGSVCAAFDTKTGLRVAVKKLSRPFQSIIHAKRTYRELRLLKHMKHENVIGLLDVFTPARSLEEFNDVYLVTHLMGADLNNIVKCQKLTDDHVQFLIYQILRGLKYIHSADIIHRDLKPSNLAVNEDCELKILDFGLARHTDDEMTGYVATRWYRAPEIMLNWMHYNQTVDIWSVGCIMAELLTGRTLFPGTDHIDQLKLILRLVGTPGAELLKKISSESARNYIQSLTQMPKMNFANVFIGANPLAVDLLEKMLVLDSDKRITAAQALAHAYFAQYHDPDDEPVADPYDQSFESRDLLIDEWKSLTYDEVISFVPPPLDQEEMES
# Syk = Syk (Homo sapiens (Human), UniProt P43405); assay: Syk enzyme inhibition (FRET, Z-LYTE); format: biochemical
# Method in brief: (§1)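 Z-LYTE FRET kinase assay: enzyme (3000 or 2000 ng/mL stock, respectively) preincubated 2 h at RT with compound (4–0.004 μg/mL stocks), then FRET peptide plus ATP (800 μM stock for c-Src, 60 μM for Syk) added for 1 h. Protease development 1 h; phosphorylation from coumarin/fluorescein emission ratio.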
# d-U937 cells = assay: Cell viability: MTT assay; format: cell-based, human; details: 1 μg/mL
# Method in brief: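 Differentiated U937 cells were exposed to compound at 1 or 10 μg/mL either 4 h in 5% FCS RPMI1640 or 24 h in 10% FCS RPMI1640, then given MTT for 1 h, DMSO-solubilised and read at 550 nm. Percent viability loss versus 0.5% DMSO vehicle; apparent gains appear negative.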
# [1] = test system: Poly I:C-induced ICAM-1 expression in BEAS2B cells; assay: Poly I:C-induced ICAM-1 expression in BEAS2B cells; format: cell-based; details: Homo sapiens, BEAS-2B, read-out: Poly IC induced ICAM1 in BEAS2B IC50
# Method in brief: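 BEAS2B human bronchial epithelial cells pre-incubated with compound for 2 hr, then transfected with 1 μg/mL poly I:C plus Oligofectamine. At 18 hr, surface ICAM-1 measured by cell-based ELISA (HRP, OD450–655). Signal corrected for cell number by crystal violet OD595.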
# cSrc = cSrc (Homo sapiens (Human), UniProt P12931); assay: c-Src enzyme inhibition (FRET, Z-LYTE); format: biochemical
# cSrc, sequence (P12931 whole entry, looked up): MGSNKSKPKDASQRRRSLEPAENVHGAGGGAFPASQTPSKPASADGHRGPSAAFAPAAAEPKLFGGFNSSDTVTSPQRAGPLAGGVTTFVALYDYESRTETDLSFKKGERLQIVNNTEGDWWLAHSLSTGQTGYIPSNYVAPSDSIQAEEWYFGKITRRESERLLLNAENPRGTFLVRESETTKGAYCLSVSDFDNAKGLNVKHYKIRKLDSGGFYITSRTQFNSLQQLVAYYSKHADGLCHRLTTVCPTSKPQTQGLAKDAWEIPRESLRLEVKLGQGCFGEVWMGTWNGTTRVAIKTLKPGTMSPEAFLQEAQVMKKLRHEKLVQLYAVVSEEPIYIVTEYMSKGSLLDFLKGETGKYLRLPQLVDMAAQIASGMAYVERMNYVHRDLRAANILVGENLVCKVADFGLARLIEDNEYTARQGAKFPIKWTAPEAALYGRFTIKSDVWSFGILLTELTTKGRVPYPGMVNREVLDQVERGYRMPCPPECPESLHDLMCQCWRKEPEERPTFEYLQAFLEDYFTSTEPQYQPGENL
# Method in brief: as §1
# [2] = test system: LPS-induced TNFα release in d-U937 cells; assay: LPS-induced TNFα release in d-U937 cells; format: cell-based; details: Homo sapiens, dU937, relative to 10 μg/mL BIRB796, read-out: LPS Induced Release of Cytokine in d-937 Cells TNFα REC50
# Description: U937 cells, a human monocytic cell line, are differentiated into macrophage-type cells by incubation with PMA (100 ng/mL) for 48 to 72 hr. Cells are pre-incubated with final concentrations of test compound for 2 hr and are then stimulated with LPS (0.1 μg/mL) (from E. coli: O111:B4, Sigma) for 4 hr. The supernatant is collected for determination of TNFα and IL-8 concentrations by sandwich ELISA (Duo-set, R&D systems). […] The relative 50% effective concentration (REC50) is determined from the resultant concentration-response curve. The inhibition of IL-8 production is calculated at each concentration of test compound by comparison with vehicle control. […] (b) LPS-Induced TNFα/IL-8 Release in PBMC Cells
# [3] = test system: LPS-induced IL-8 release in d-U937 cells; assay: LPS-induced IL-8 release in d-U937 cells; format: cell-based; details: Homo sapiens, dU937, read-out: LPS Induced Release of Cytokine in d-937 Cells IL-8 IC50
# Method in brief: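 First, U937 monocytes undergo PMA treatment (100 ng/mL) for 48 to 72 hr to become macrophage-type. Next, compound at final concentrations is added for 2 hr, followed by LPS at 0.1 μg/mL for 4 hr. Finally, cytokines in the supernatant are quantified by ELISA against vehicle-treated cells.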
# GSK3α, sequence (P49840 whole entry): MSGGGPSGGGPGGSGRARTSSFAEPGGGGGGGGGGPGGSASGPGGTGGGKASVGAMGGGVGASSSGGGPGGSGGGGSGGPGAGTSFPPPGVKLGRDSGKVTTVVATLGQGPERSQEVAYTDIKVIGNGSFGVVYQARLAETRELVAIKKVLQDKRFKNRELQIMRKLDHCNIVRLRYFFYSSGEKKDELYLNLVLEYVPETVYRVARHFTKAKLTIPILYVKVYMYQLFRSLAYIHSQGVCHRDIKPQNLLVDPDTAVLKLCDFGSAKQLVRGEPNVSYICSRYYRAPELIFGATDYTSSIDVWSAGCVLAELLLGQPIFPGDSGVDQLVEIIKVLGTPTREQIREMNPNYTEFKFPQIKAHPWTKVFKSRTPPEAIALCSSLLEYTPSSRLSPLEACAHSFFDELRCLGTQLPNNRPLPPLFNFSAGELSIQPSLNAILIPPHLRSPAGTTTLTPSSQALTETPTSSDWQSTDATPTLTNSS
SMILES,IC50 (GSK3α) [µM],IC50 (p38 MAPKα) [µM],IC50 (Syk) [µM],IC50 (cSrc) [µM],EC50 [2] [µM],IC50 [3] [µM],MTT Assay Cell viability at time point in d-U937 cells 4 h (d-U937 cells),MTT Assay Cell viability at time point in d-U937 cells 24 h (d-U937 cells),IC50 [1] [µM]
"Cc1ccc(-n2nc(C(C)(C)C)cc2NC(=O)Nc2ccc(Oc3ccnc(Nc4ccc5c(c4)CC(=O)N5C)n3)c3ccccc23)cc1 [Example 20, 1-(3-(tert-butyl)-1-(p-tolyl)-1H-pyrazol-5-yl)-3-(4-((2-((1-methyl-2-oxoindolin-5-yl)amino)pyrimidin-4-yl)oxy)naphthalen-1-yl)urea]",0.9,0.061,0.006,0.113,0.0017,0.0022,"−ve (−ve and +ve indicate that the value is below and above respectively, the no significant effect threshold, defined as 30% inhibition at 1 μg/mL at the time point indicated.)","−ve (−ve and +ve indicate that the value is below and above respectively, the no significant effect threshold, defined as 30% inhibition at 1 μg/mL at the time point indicated.)",0.0063
"Cc1cc(Nc2nccc(Oc3ccc(NC(=O)Nc4cc(C(C)(C)C)nn4-c4cccc(CN5CCCC5=O)c4)c4ccccc34)n2)cc2cn[nH]c12 [Example 10, 1-(3-(tert-Butyl)-1-(3-((2-oxopyrrolidin-1-yl)methyl)phenyl)-1H-pyrazol-5-yl)-3-(4-((2-((7-methyl-1H-indazol-5-yl)amino)pyrimidin-4-yl)oxy)naphthalen-1-yl)urea]",0.589,0.018,0.002,< 0.001,0.0014,0.0012,"−ve (−ve and +ve indicate that the value is below and above respectively, the no significant effect threshold, defined as 30% inhibition at 1 μg/mL at the time point indicated.)","−ve (−ve and +ve indicate that the value is below and above respectively, the no significant effect threshold, defined as 30% inhibition at 1 μg/mL at the time point indicated.)",0.0039
"COc1ccc(-n2nc(C(C)(C)C)cc2NC(=O)Nc2ccc(Oc3ccnc(Nc4ccc5[nH]nc(C(=O)N6CCOCC6)c5c4)n3)c3ccccc23)cn1 [Example 83, 1-(3-(tert-butyl)-1-(6-methoxypyridin-3-yl)-1H-pyrazol-5-yl)-3-(4-((2-((3-(morpholine-4-carbonyl)-1H-indazol-5-yl)amino)pyrimidin-4-yl)oxy)naphthalen-1-yl)urea]",3.78,0.01,0.063,0.107,0.0007,0.0087,"−ve (−ve and +ve indicate that the value is below and above respectively, the no significant effect threshold, defined as 30% inhibition at 1 μg/mL at the time point indicated.)","−ve (−ve and +ve indicate that the value is below and above respectively, the no significant effect threshold, defined as 30% inhibition at 1 μg/mL at the time point indicated.)",0.0029
"CC(C)c1cc(NC(=O)Nc2ccc(Oc3cc(Nc4ccc5[nH]ncc5c4)ncn3)c3ccccc23)n(-c2ccc(=O)n(CCO)c2)n1 [Example 84, 1-(4-((6-((1H-indazol-5-yl)amino)pyrimidin-4-yl)oxy)naphthalen-1-yl)-3-(1-(1-(2-hydroxyethyl)-6-oxo-1,6-dihydropyridin-3-yl)-3-isopropyl-1H-pyrazol-5-yl)urea]",0.278,< 0.0015,0.012,0.003,0.147,0.217,"−ve (−ve and +ve indicate that the value is below and above respectively, the no significant effect threshold, defined as 30% inhibition at 1 μg/mL at the time point indicated.)","−ve (−ve and +ve indicate that the value is below and above respectively, the no significant effect threshold, defined as 30% inhibition at 1 μg/mL at the time point indicated.)",> 0.152

# Continued, in another order:
IC50 (GSK3α) [µM],IC50 (p38 MAPKα) [µM],IC50 (Syk) [µM],IC50 (cSrc) [µM],EC50 [2] [µM],IC50 [3] [µM],SMILES,MTT Assay Cell viability at time point in d-U937 cells 4 h (d-U937 cells),MTT Assay Cell viability at time point in d-U937 cells 24 h (d-U937 cells),IC50 [1] [µM]
2.29,0.417,0.093,0.027,0.0035,0.0031,"CC(C)(C)c1cc(NC(=O)Nc2ccc(Oc3ccnc(Nc4ccc5[nH]c(=O)oc5c4)n3)c3ccccc23)n(-c2ccc(OCCN3CCOCC3)cc2)n1 [Example 77, 1-(3-(tert-butyl)-1-(4-(2-morpholinoethoxy)phenyl)-1H-pyrazol-5-yl)-3-(4-((2-((2-oxo-2,3-dihydrobenzo[d]oxazol-6-yl)amino)pyrimidin-4-yl)oxy)naphthalen-1-yl)urea]","−ve (−ve and +ve indicate that the value is below and above respectively, the no significant effect threshold, defined as 30% inhibition at 1 μg/mL at the time point indicated.)","−ve (−ve and +ve indicate that the value is below and above respectively, the no significant effect threshold, defined as 30% inhibition at 1 μg/mL at the time point indicated.)",0.0086
0.73,0.149,0.036,0.008,0.0105,0.0124,"CC(C)(C)c1cc(NC(=O)Nc2ccc(Oc3ccnc(Nc4ccc5scnc5c4)n3)c3ccccc23)n(-c2ccc(OCCN3CCOCC3)cc2)n1 [Example 79, 1-(4-((2-(benzo[d]thiazol-5-ylamino)pyrimidin-4-yl)oxy)naphthalen-1-yl)-3-(3-(tert-butyl)-1-(4-(2-morpholinoethoxy)phenyl)-1H-pyrazol-5-yl)urea]","−ve (−ve and +ve indicate that the value is below and above respectively, the no significant effect threshold, defined as 30% inhibition at 1 μg/mL at the time point indicated.)","−ve (−ve and +ve indicate that the value is below and above respectively, the no significant effect threshold, defined as 30% inhibition at 1 μg/mL at the time point indicated.)",0.007
2.85,0.335,0.019,0.015,0.0064,0.016,"Cc1cc2cc(Nc3nccc(Oc4ccc(NC(=O)Nc5cc(C(C)(C)C)nn5-c5ccc(OCCN6CCOCC6)cc5)c5ccccc45)n3)ccc2[nH]1 [Example 66, 1-(3-(tert-butyl)-1-(4-(2-morpholinoethoxy)phenyl)-1H-pyrazol-5-yl)-3-(4-((2-((2-methyl-1H-indol-5-yl)amino)pyrimidin-4-yl)oxy)naphthalen-1-yl)urea]","−ve (−ve and +ve indicate that the value is below and above respectively, the no significant effect threshold, defined as 30% inhibition at 1 μg/mL at the time point indicated.)","−ve (−ve and +ve indicate that the value is below and above respectively, the no significant effect threshold, defined as 30% inhibition at 1 μg/mL at the time point indicated.)",0.0069
0.777,0.048,0.034,0.015,0.0125,0.0003,"CC(C)(C)c1cc(NC(=O)Nc2ccc(Oc3ccnc(Nc4ccc5oc(=O)[nH]c5c4)n3)c3ccccc23)n(-c2ccc(OCCN3CCOCC3)cc2)n1 [Example 76, 1-(3-(tert-butyl)-1-(4-(2-morpholinoethoxy)phenyl)-1H-pyrazol-5-yl)-3-(4-((2-((2-oxo-2,3-dihydrobenzo[d]oxazol-5-yl)amino)pyrimidin-4-yl)oxy)naphthalen-1-yl)urea]","−ve (−ve and +ve indicate that the value is below and above respectively, the no significant effect threshold, defined as 30% inhibition at 1 μg/mL at the time point indicated.)","−ve (−ve and +ve indicate that the value is below and above respectively, the no significant effect threshold, defined as 30% inhibition at 1 μg/mL at the time point indicated.)",0.0022
